Test results: US9656971B2, “COMT inhibitors” (Hoffmann-La Roche Inc., priority 2012, dated 2017)
Structures can show the parent of a compound that is named as a salt.

biological target: T1, Rec. human COMT (Homo sapiens, UniProt P21964); experiment: COMT-Fluorescence Assay; assay type: biochemical; settings: COMT-fluorescence assay, rec. human COMT 25 nM, 4-Nitrocatechol-Alexa488 200 nM, SAM 500 nM; read-out: IC50
T1 sequence (P21964 1-271): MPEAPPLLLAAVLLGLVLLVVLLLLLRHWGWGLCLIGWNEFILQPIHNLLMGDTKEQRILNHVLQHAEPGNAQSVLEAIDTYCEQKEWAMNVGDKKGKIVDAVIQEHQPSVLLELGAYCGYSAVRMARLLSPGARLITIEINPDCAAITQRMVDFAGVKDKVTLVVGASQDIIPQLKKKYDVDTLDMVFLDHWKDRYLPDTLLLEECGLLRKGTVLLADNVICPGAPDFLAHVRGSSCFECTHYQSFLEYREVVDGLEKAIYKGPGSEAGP
Procedure: This intramolecular interaction is disturbed if the 4-Nitrocatechol is methylated. […] This increase of fluorescence intensity can be followed in a kinetic measurement. The slope in the linear range of the kinetic is calculated. An inhibitor compound decreases the slope.
Signal [rfu/min]=(rfu(end-point)−rfu(startpoint))/incubation_time_#2

Row | IC50 [nM] | Structure (SMILES)
1 | 170 | Cc1nc(-c2cc(O)c3nc[nH]c(=O)c3c2)cs1 [Example 85, 8-Hydroxy-6-(2-methylthiazol-4-yl)quinazolin-4(3H)-one]
2 | 2800 | CN(C)c1ccc(/N=N/c2ccccc2)c(-c2cc(O)c3nc[nH]c(=O)c3c2)c1 [Example 29, (E)-6-(5-(Dimethylamino)-2-(phenyldiazenyl)phenyl)-8-hydroxyquinazolin-4(3H)-one]
3 | 120 | O=c1[nH]cnc2c(O)cc(Br)c(F)c12 [Example 196, 6-Bromo-5-fluoro-8-hydroxyquinazolin-4(3H)-one]
4 | 1030 | CC(C)N(C(=O)c1ccccc1-c1cc(O)c2nc[nH]c(=O)c2c1)C(C)C [Example 226, 2-(8-Hydroxy-4-oxo-3,4-dihydroquinazolin-6-yl)-N,N-diisopropylbenzamide]
5 | 290 | O=c1[nH]cnc2c(O)cc(Cl)cc12 [Example 139, 6-Chloro-8-hydroxyquinazolin-4(3H)-one]
6 | 20 | COCc1cc(COC(=O)N2CCN(C(C)C)CC2)ccc1-c1cc(O)c2nc[nH]c(=O)c2c1 [Example 109, 4-(8-Hydroxy-4-oxo-3,4-dihydroquinazolin-6-yl)-3-(methoxymethyl)benzyl 4-isopropylpiperazine-1-carboxylate bis(2,2,2-trifluoroacetate)]
7 | 100 | Cc1ccc(C(=O)c2cc(O)c3nc[nH]c(=O)c3c2)cc1 [Example 66, 8-Hydroxy-6-(4-methylbenzoyl)quinazolin-4(3H)-one]
8 | 10 | CN(C)c1cccc(-c2cc(O)c3nc[nH]c(=O)c3c2)c1 [Example 148, 6-(3-Dimethylamino-phenyl)-8-hydroxy-3H-quinazolin-4-one]
9 | 20 | Cc1c(-c2cc(O)c3nc[nH]c(=O)c3c2)cnn1-c1ccccc1 [Example 204, 8-Hydroxy-6-(5-methyl-1-phenyl-1H-pyrazol-4-yl)quinazolin-4(3H)-one]
10 | 20 | CCOC(=O)c1cc(O)c2nc[nH]c(=O)c2c1 [Example 6, Ethyl 8-hydroxy-4-oxo-3,4-dihydroquinazoline-6-carboxylate]
11 | 20 | O=C(NCCN1CCOCC1)c1ccc(-c2cc(O)c3nc[nH]c(=O)c3c2)cc1 [Example 172, 4-(8-Hydroxy-4-oxo-3,4-dihydroquinazolin-6-yl)-N-(2-morpholinoethyl)benzamide]
12 | 710 | O=c1[nH]cnc2c(O)cc(N3CCOCC3)cc12 [Example 187, 8-Hydroxy-6-morpholinoquinazolin-4(3H)-one]
13 | 510 | Cn1cnc(-c2cc(O)c3nc[nH]c(=O)c3c2)c1 [Example 75, 8-Hydroxy-6-(1-methyl-1H-imidazol-4-yl)quinazolin-4(3H)-one]
14 | 20 | COCc1cc(CN2CCN(C(C)C)CC2)ccc1-c1cc(O)c2nc[nH]c(=O)c2c1 [Example 107, 8-Hydroxy-6-(4-((4-isopropylpiperazin-1-yl)methyl)-2-(methoxymethyl)phenyl)quinazolin-4(3H)-one tetrakis(2,2,2-trifluoroacetate)]
15 | 1140 | CN(C)S(=O)(=O)c1ccccc1-c1cc(O)c2nc[nH]c(=O)c2c1 [Example 250, 2-(8-Hydroxy-4-oxo-3,4-dihydro-quinazolin-6-yl)-N,N-dimethyl-benzenesulfonamide]
16 | 60 | O=c1[nH]cnc2c(O)cc(I)cc12 [Example 137, 8-Hydroxy-6-iodo-3H-quinazolin-4-one]
17 | 560 | O=c1[nH]cnc2c(O)cc(CCc3ccccc3)cc12 [Example 16, 8-Hydroxy-6-phenethylquinazolin-4(3H)-one]
18 | 60 | N#Cc1c(-c2ccc(F)cc2)cc(O)c2nc[nH]c(=O)c12 [Example 54, 6-(4-Fluorophenyl)-8-hydroxy-4-oxo-3,4-dihydroquinazoline-5-carbonitrile]
19 | 230 | Cc1ncc(-c2cc(O)c3nc[nH]c(=O)c3c2)n1C [Example 87, 6-(1,2-Dimethyl-1H-imidazol-5-yl)-8-hydroxyquinazolin-4(3H)-one]
20 | 60 | O=c1[nH]cnc2c(O)cc(-c3cnsc3)cc12 [Example 92, 8-Hydroxy-6-(isothiazol-4-yl)quinazolin-4(3H)-one]

Row | IC50 [nM] | Structure (SMILES)
21 | 60 | O=C(c1ccccc1)c1cc(O)c2nc[nH]c(=O)c2c1 [Example 68, 6-Benzoyl-8-hydroxy-3H-quinazolin-4-one]
22 | 20 | CN(C)c1ccc(-c2cc(O)c3nc[nH]c(=O)c3c2)cc1 [Example 147, 6-(4-Dimethylamino-phenyl)-8-hydroxy-3H-quinazolin-4-one]
23 | 30 | O=c1[nH]cnc2c(O)cc(-c3ccccc3COCCN3CCN(CC(F)(F)F)CC3)cc12 [Example 121, 8-Hydroxy-6-(2-((2-(4-(2,2,2-trifluoroethyl)piperazin-1-yl)ethoxy)methyl)phenyl)quinazolin-4(3H)-one 2,2,2-trifluoroacetate]
24 | 10 | Cc1ccc(-c2c(-c3ccc(F)cc3)cc(O)c3nc[nH]c(=O)c23)cc1 [Example 50, 6-(4-Fluorophenyl)-8-hydroxy-5-p-tolylquinazolin-4(3H)-one]
25 | 90 | O=c1[nH]cnc2c(O)cc(-c3ccccc3COCCC3CCN(CC(F)(F)F)CC3)c(Cl)c12 [Example 120, 5-Chloro-8-hydroxy-6-(2-((2-(1-(2,2,2-trifluoroethyl)piperidin-4-yl)ethoxy)methyl)phenyl)quinazolin-4(3H)-one 2,2,2-trifluoroacetate]
26 | 20 | Cc1cnccc1-c1cc(O)c2nc[nH]c(=O)c2c1 [Example 219, 8-Hydroxy-6-(3-methylpyridin-4-yl)quinazolin-4(3H)-one]
27 | 1470 | Cc1cccc(Cc2cc(O)c3nc[nH]c(=O)c3c2)c1 [Example 12, 8-Hydroxy-6-(3-methylbenzyl)quinazolin-4(3H)-one]
28 | 20 | CN(C)c1ccc(-c2cc(O)c3nc[nH]c(=O)c3c2)cn1 [Example 60, 6-(6-(Dimethylamino)pyridin-3-yl)-8-hydroxyquinazolin-4(3H)-one 1:1 salt with trifluoroacetate]
29 | 740 | O=c1[nH]cnc2c(O)cc(-c3ccccc3S(=O)(=O)N3CCCCC3)cc12 [Example 251, 8-Hydroxy-6-[2-(piperidine-1-sulfonyl)-phenyl]-3H-quinazolin-4-one]
30 | 60 | CCOc1ccccc1-c1cc(O)c2nc[nH]c(=O)c2c1 [Example 225, 6-(2-Ethoxyphenyl)-8-hydroxyquinazolin-4(3H)-one]
31 | 1 | O=c1[nH]cnc2c(O)cc(-c3ccc(F)cc3)c(-c3ccc(F)cc3)c12 [Example 102, 5,6-Bis(4-fluorophenyl)-8-hydroxyquinazolin-4(3H)-one]
32 | 2530 | O=c1[nH]cnc2c(O)ccc(F)c12 [Example 197, 5-Fluoro-8-hydroxyquinazolin-4(3H)-one]
33 | 50 | O=c1[nH]cnc2c(O)cc(-c3ccc(S(F)(F)(F)(F)F)cc3)cc12 [Example 100, 6-(4-Pentafluorosulfanylphenyl)-8-hydroxyquinazolin-4(3H)-one]
34 | 20 | CN1CCN(S(=O)(=O)c2cccc(-c3cc(O)c4nc[nH]c(=O)c4c3)c2)CC1 [Example 111, 8-Hydroxy-6-[3-(4-methyl-piperazine-1-sulfonyl)-phenyl]-3#H!-quinazolin-4-one; compound with trifluoro-acetic acid]
35 | 3600 | CC(C)(O)c1ccccc1-c1cc(O)c2nc[nH]c(=O)c2c1 [Example 113, 8-Hydroxy-6-(2-(2-hydroxypropan-2-yl)phenyl)quinazolin-4(3H)-one]
36 | 70 | O=c1[nH]cnc2c(O)cc(-c3cnn(-c4ccc(F)cc4)c3)cc12 [Example 152, 6-[1-(4-Fluoro-phenyl)-1H-pyrazol-4-yl]-8-hydroxy-3H-quinazolin-4-one]
37 | 80 | COc1ccc(C)cc1-c1cc(O)c2nc[nH]c(=O)c2c1 [Example 36, 8-Hydroxy-6-(2-methoxy-5-methylphenyl)quinazolin-4(3H)-one]
38 | 20 | N#Cc1ccccc1-c1cc(O)c2nc[nH]c(=O)c2c1 [Example 207, 2-(8-Hydroxy-4-oxo-3,4-dihydroquinazolin-6-yl)benzonitrile]
39 | 4600 | Cc1onc(-c2ccccc2)c1-c1cc(O)c2nc[nH]c(=O)c2c1 [Example 76, 8-Hydroxy-6-(5-methyl-3-phenylisoxazol-4-yl)quinazolin-4(3H)-one]

same assay, conditions: IC50, COMT-fluorescence assay, rec. human COMT 25 nM, 4-Nitrocatechol-Alexa488 200 nM, SAM 500 nM

Row | IC50 [nM] | Structure (SMILES)
40 | 10 | O=c1[nH]cnc2c(O)cc(-c3ccc(N4CCOCC4)cc3)cc12 [Example 142, 8-Hydroxy-6-(4-morpholin-4-yl-phenyl)-3H-quinazolin-4-one]
41 | 10 | CN1CCc2cc(-c3cc(O)c4nc[nH]c(=O)c4c3)ccc21 [Example 40, 8-Hydroxy-6-(1-methylindolin-5-yl)quinazolin-4(3H)-one 1:1 salt with trifluoroacetate]
42 | 30 | Cc1ccc(F)cc1-c1cc(O)c2nc[nH]c(=O)c2c1 [Example 213, 6-(5-Fluoro-2-methylphenyl)-8-hydroxyquinazolin-4(3H)-one]
43 | 20 | O=c1[nH]cnc2c(O)cc(-c3c(F)c(F)c(F)c(F)c3F)cc12 [Example 33, 8-Hydroxy-6-(perfluorophenyl)quinazolin-4(3H)-one]
44 | 10 | O=c1[nH]cnc2c(O)cc(-c3ccc(-n4cccn4)cc3)cc12 [Example 141, 8-Hydroxy-6-(4-pyrazol-1-yl-phenyl)-3H-quinazolin-4-one]

Row | Structure (SMILES) | IC50 [nM]
45 | CCc1cc(O)c2nc[nH]c(=O)c2c1 [Example 10, 6-Ethyl-8-hydroxyquinazolin-4(3H)-one 2,2,2-trifluoroacetate] | 1090
